Laboratory results from US6808930B1, “Therapeutic agents” (priority 1997, dated 2004).

System: L1210, A549 and HRTEC nuclei
Test: DNA fragmentation in isolated nuclei
Format: cell-based
Details: L1210 and A549 nuclei incubated with Ca2+ inhibitors
Experimental: Nuclei were purified from L1210, A549 and HRTEC cells and incubated with low concentrations of MAL (0.2 and 0.4 mg/ml). The formation of HMW and oligonucleosome length DNA fragments was examined.
A549, L1210 and HRTEC nuclei were isolated from homogenised cells. Pellet 1 from the homogenisation was washed twice in nuclei buffer for 20 min at 100×g and suspended in nuclei buffer for experiments. Rat liver nuclei was isolated.
A549, L1210 or HRTEC nuclei in suspension were placed in individual wells in a 24-well plate ([…]), mixed with MAL, α-lactalbumin, lactoferrin or BSA (100 μl in nucleus buffer), incubated at 37° C. for 1 hour (L1210,) or 2 hours (A549 and HRTEC), harvested by aspiration, analysed for DNA fragmentation as described above.

Row | SMILES | effect on MAL induced DNA fragmentation
1 | CC(=O)OCOC(=O)CN(CC(=O)OCOC(C)=O)c1ccccc1OCCOc1ccccc1N(CC(=O)OCOC(C)=O)CC(=O)OCOC(C)=O [BAPTA/AM, reference compound] | completely blocked the DNA fragmentation
2 | O=C(O)CN(CCN(CC(=O)O)CC(=O)O)CC(=O)O [EDTA, reference compound] | completely blocked the DNA fragmentation
